From paper PMC12016938, “A small molecule PKCε inhibitor reduces hyperalgesia induced by paclitaxel or opioid withdrawal” (JCI Insight, 2025)
Several values for one entry are separate records, joined by “and”; a condition that tells them apart may be missing. Equal values may be shown once.

Tested on: self-administration (addictive potential)
Assay: I.v. self-administration of CP612, between-session progressive ratio and demand curve
Protocol: We tested the addictive potential of CP612 by examining the extent to which rats are willing to work to obtain CP612. Rats were initially trained to self-administer either saline, morphine (500 μg/kg/i.v. infusion), or 1 of 3 different doses of CP612 (75, 150, or 300 μg/kg/i.v. infusion) for 4 days at fixed ratio 1 (FR1, where 1 nose poke delivers 1 infusion).
During the second phase, the ratio to obtain an infusion increased geometrically every other day (FR1, FR3, FR6, FR12, FR24, FR48, and FR96).
Data (number of self-infusions) were also fitted in an economic-demand curve, which provides an estimate of the motivation to obtain drugs and their addictive potential ([20]). We measured elasticity (α), which is the relative change in consumption as a function of price (i.e., ratio of nose pokes required to obtain an infusion). Behavior is considered “inelastic” when consumption is insensitive to price and “elastic” when consumption is sensitive to price. We also measured Pmax, which is the price at which intake switches from inelastic to elastic. […] (Figure 8B).
Rats not immediately anesthetized were eliminated from the study.
Following this initial acquisition phase at FR1, the ratio to obtain the drug was increased geometrically every other day: FR3 (3 nose pokes are required to obtain 1 infusion of morphine), FR6, FR12, FR24, FR48, and FR96. This allows for analysis of drug consumption as a function of “price” using demand curves for behavioral economics, which can estimate the motivation to obtain drugs and their “addictive potential” ([20]). For this, data from each rat were fitted to the equation log Q = log Q0 + k (e ^–α(Q0 ^C) – 1), where Q represents consumption (number of self-infusions), and Q0 represents the level of consumption at the lowest price. C represents price for the drug (i.e., the ratio), and k is set to a constant accounting for the estimated range of consumption in logarithmic units (k = 4 in these studies). The symbol α is the relative change in consumption across changes in price (ratio). Behavior is considered “inelastic” when consumption is insensitive to price (i.e., the curve is flat, and consumption is maintained despite increases in price), and it switches to “elastic” when consumption is sensitive to price (i.e., when the curve is steep and consumption declines with increases in price). […] We also compared groups for their average intake in the consumption-price curves by measuring α (elasticity) and Pmax.

N[C@H](CNC(=O)C1(c2ccc(Cl)cc2)CCCC1)c1ccc(C(=O)Nc2ccncc2)cc1 [CP612]
AVG Latency (FR12) (CP612-Mid, individual rat): 0.5 and 1.1 and 1.0 and 3.5 and 4.2
AVG Latency (FR24) (CP612-Mid, individual rat): 0.3 and 1.4 and 1.0 and 1.5
AVG Latency (FR48) (CP612-Mid, individual rat): 0.112 and 1.3 and 0.7 and 0.539 and 2.5
AVG Latency (FR96) (CP612-Mid, individual rat): 2.0 and 0.8 and 0.6 and 2.4
D1 Latency (FR1) (CP612-Mid, individual rat): 3.8 and 0.15 and 0.8 and 0.215
D1 Latency (FR3) (CP612-Mid, individual rat): 0.137 and 0.557 and 0.083 and 0.1 and 1.4
D1 Latency (FR6) (CP612-Mid, individual rat): 0.9 and 1.2 and 1.4 and 3.2 and 4.8
D1 Latency (FR12) (CP612-Mid, individual rat): 0.255 and 1.6 and 1.7 and 5.8
D1 Latency (FR24) (CP612-Mid, individual rat): 0.108 and 2.3 and 0.4 and 0.282 and 2.0
D1 Latency (FR48) (CP612-Mid, individual rat): 0.123 and 1.4 and 0.337 and 0.447 and 2.9
D1 Latency (FR96) (CP612-Mid, individual rat): 2.4 and 0.76 and 0.8 and 2.5 and 0.4
D2 Latency (FR1) (CP612-Mid, individual rat): 0.5 and 0.215 and 0.6 and 0.237 and 2.1
D2 Latency (FR3) (CP612-Mid, individual rat): 1.4 and 0.375 and 2.2 and 0.065 and 0.125
D2 Latency (FR6) (CP612-Mid, individual rat): 0.335 and 0.737 and 0.17 and 2.8 and 5.1
D2 Latency (FR12) (CP612-Mid, individual rat): 0.7 and 0.6 and 0.4 and 5.2 and 2.6
D2 Latency (FR24) (CP612-Mid, individual rat): 0.5 and 0.432 and 0.168 and 1.7 and 1.0
D2 Latency (FR48) (CP612-Mid, individual rat): 0.1 and 1.2 and 1.0 and 0.632 and 2.0
D2 Latency (FR96) (CP612-Mid, individual rat): 1.7 and 0.8 and 0.435 and 2.3
D3 Latency (FR1) (CP612-Mid, individual rat): 0.237 and 0.127 and 0.132 and 0.128 and 0.347
D4 Latency (FR1) (CP612-Mid, individual rat): 0.8 and 1.4 and 0.4 and 3.8
last Latency (FR1) (CP612-Mid, individual rat): 0.158 and 0.458 and 0.11 and 0.378 and 3.0
last-1 Latency (FR1) (CP612-Mid, individual rat): 0.8 and 1.4 and 0.4 and 3.8
last-2 Latency (FR1) (CP612-Mid, individual rat): 0.237 and 0.127 and 0.132 and 0.128 and 0.347
last-3 Latency (FR1) (CP612-Mid, individual rat): 0.237 and 0.215 and 0.6 and 0.128 and 0.347
AVG Latency (FR1_D1 to D4) (CP612-Mid, individual rats): 1.8 and 5.8 and 0.9
AVG Latency (FR1_Last 2 FR1 days) (CP612-Mid, individual rats): 0.456 and 1.8 and 0.373
AVG Latency (FR1_Last 4 FR1 days) (CP612-Mid, individual rats): 0.455 and 2.3 and 0.265
AVG Latency (FR3) (CP612-Mid, individual rats): 0.7 and 0.9 and 0.6
AVG Latency (FR6) (CP612-Mid, individual rats): 1.0 and 2.4 and 0.144
AVG Latency (FR12) (CP612-Mid, individual rats): 0.657 and 1.0 and 0.8
AVG Latency (FR24) (CP612-Mid, individual rats): 0.8 and 0.757 and 0.6
AVG Latency (FR48) (CP612-Mid, individual rats): 2.5 and 6.0 and 0.7
AVG Latency (FR96) (CP612-Mid, individual rats): 1.0 and 1.3
D1 Latency (FR1) (CP612-Mid, individual rats): 5.7 and 14.9 and 2.9
D1 Latency (FR3) (CP612-Mid, individual rats): 1.0 and 0.8 and 0.465
D1 Latency (FR6) (CP612-Mid, individual rats): 1.7 and 4.2 and 0.257
D1 Latency (FR12) (CP612-Mid, individual rats): 0.9 and 1.9 and 1.1
D1 Latency (FR24) (CP612-Mid, individual rats): 1.1 and 0.9 and 0.442
D1 Latency (FR48) (CP612-Mid, individual rats): 1.5 and 0.8 and 1.2
D1 Latency (FR96) (CP612-Mid, individual rats): 1.1 and 0.335 and 0.8
D2 Latency (FR1) (CP612-Mid, individual rats): 0.7 and 3.0 and 0.022
D2 Latency (FR3) (CP612-Mid, individual rats): 0.4 and 1.0 and 0.738
D2 Latency (FR6) (CP612-Mid, individual rats): 0.427 and 0.638 and 0.03
D2 Latency (FR12) (CP612-Mid, individual rats): 0.377 and 0.168 and 0.5
D2 Latency (FR24) (CP612-Mid, individual rats): 0.5 and 0.6 and 0.753
D2 Latency (FR48) (CP612-Mid, individual rats): 3.5 and 11.3 and 0.2
D2 Latency (FR96) (CP612-Mid, individual rats): 0.8 and 2.3 and 1.1
D3 Latency (FR1) (CP612-Mid, individual rats): 0.6 and 4.4 and 0.157
D4 Latency (FR1) (CP612-Mid, individual rats): 0.3 and 1.0 and 0.57
last Latency (FR1) (CP612-Mid, individual rats): 0.2 and 0.6 and 0.177
last-1 Latency (FR1) (CP612-Mid, individual rats): 0.7 and 3.1 and 0.57
last-2 Latency (FR1) (CP612-Mid, individual rats): 0.3 and 1.0 and 0.157
last-3 Latency (FR1) (CP612-Mid, individual rats): 0.6 and 4.4 and 0.157
AVG Inf (FR96) (rat, in vivo): 0.0
Addictive potential (rat, in vivo): highly unlikely to be addictive
D1 Inf (FR96) (rat, in vivo): 0
D2 Inf (FR96) (rat, in vivo): 0
AVG Inf (FR96) (rat, in vivo, 2 h): 0.0
D1 Inf (FR96) (rat, in vivo, 2 h): 0
D2 Inf (FR96) (rat, in vivo, 2 h): 0
D1 Inf (FR48) (rat, in vivo, 1 day at FR48): 0
D1 Inf (FR96) (rat, in vivo, 1 day at FR96): 0
D2 Inf (FR48) (rat, in vivo, 2 day at FR48): 0
D2 Inf (FR96) (rat, in vivo, 2 day at FR96): 0
